Measurements taken from ChEMBL document CHEMBL4373740, “Synthesis and biological evaluation of new MET inhibitors with 1,6-naphthyridinone scaffold” (Eur J Med Chem, 2020).

Columns and labels:
[1] = target: Hepatocyte growth factor receptor (Homo sapiens, UniProt P08581); assay: Inhibition of purified recombinant MET kinase domain (unknown origin) using biotin as substrate preincubated for 5 mins followed by substrate addition and measured after 30 to 60 mins in presence of ATP by HTRF assay
[2] = Antiproliferative activity against human NIH-H460 cells at 10 uM incubated for 72 hrs by MTT assay relative to control; type: functional; conditions: NIH-H460, 72 h
[3] = target: Vascular endothelial growth factor receptor 2 (Homo sapiens, UniProt P35968); assay: Inhibition of purified recombinant VEGFR2 kinase domain (unknown origin) using biotin as substrate preincubated for 5 mins followed by substrate addition and measured after 30 to 60 mins in presence of ATP by HTRF assay
[4] = test system: MKN-45; assay: Antiproliferative activity against human MKN45 cells at 10 uM incubated for 72 hrs by MTT assay relative to control; type: functional; conditions: MKN-45, 72 h
[5] = test system: HT-29; assay: Antiproliferative activity against human HT-29 cells at 10 uM incubated for 72 hrs by MTT assay relative to control; type: functional; conditions: HT-29, 72 h
[6] = in vitro; conditions: human, liver microsomes
[7] = organism: Homo sapiens; assay: Selectivity index, ratio of IC50 for purified recombinant VEGFR2 kinase domain (unknown origin) to IC50 for purified recombinant MET kinase domain (unknown origin)
[8] = Mean residence time in Sprague-Dawley rat at 2.5 mg/kg, iv measured for 5 min to 72 hrs by LC-MS/MS analysis; type: ADME, organism-based; conditions: in vivo
[9] = Tmax in Sprague-Dawley rat at 10 mg/kg, ig measured for 15 min to 72 hrs by LC-MS/MS analysis; type: ADME, organism-based; conditions: in vivo, po
[10] = Clearance in Sprague-Dawley rat at 2.5 mg/kg, iv measured for 5 min to 72 hrs by LC-MS/MS analysis; type: ADME, organism-based; conditions: in vivo
[11] = Half life in Sprague-Dawley rat at 2.5 mg/kg, iv measured for 5 min to 72 hrs by LC-MS/MS analysis; type: ADME, organism-based; conditions: in vivo
[12] = Cmax in Sprague-Dawley rat at 10 mg/kg, ig measured for 15 min to 72 hrs by LC-MS/MS analysis; type: ADME, organism-based; design: dose 10 mg/kg, route intragastric; conditions: in vivo, po
[13] = AUC (0 to infinity) in Sprague-Dawley rat at 10 mg/kg, ig measured for 15 min to 72 hrs by LC-MS/MS analysis; type: ADME, organism-based; design: dose 10 mg/kg, time infinity, route intragastric; conditions: in vivo, po
[14] = Clearance in Sprague-Dawley rat at 10 mg/kg, ig measured for 15 min to 72 hrs by LC-MS/MS analysis; type: ADME, organism-based; conditions: in vivo, po
[15] = Volume of distribution in Sprague-Dawley rat at 10 mg/kg, ig measured for 15 min to 72 hrs by LC-MS/MS analysis; type: ADME, organism-based; conditions: in vivo, po
[16] = Volume of distribution in Sprague-Dawley rat at 2.5 mg/kg, iv measured for 5 min to 72 hrs by LC-MS/MS analysis; type: ADME, organism-based; conditions: in vivo
[17] = Cmax in Sprague-Dawley rat at 2.5 mg/kg, iv measured for 5 min to 72 hrs by LC-MS/MS analysis; type: ADME, organism-based; design: dose 2.5 mg/kg, route intravenous; conditions: in vivo
[18] = Oral bioavailability in Sprague-Dawley rat at 10 mg/kg, ig measured for 15 min to 72 hrs by LC-MS/MS analysis; type: ADME, organism-based; conditions: in vivo
[19] = Mean residence time in Sprague-Dawley rat at 10 mg/kg, ig measured for 15 min to 72 hrs by LC-MS/MS analysis; type: ADME, organism-based; conditions: in vivo, po
[20] = Tmax in Sprague-Dawley rat at 2.5 mg/kg, iv measured for 5 min to 72 hrs by LC-MS/MS analysis; type: ADME, organism-based; conditions: in vivo
[21] = Half life in Sprague-Dawley rat at 10 mg/kg, ig measured for 15 min to 72 hrs by LC-MS/MS analysis; type: ADME, organism-based; conditions: in vivo, po
[22] = AUC (0 to infinity) in Sprague-Dawley rat at 2.5 mg/kg, iv measured for 5 min to 72 hrs by LC-MS/MS analysis; type: ADME, organism-based; design: dose 2.5 mg/kg, route intravenous, time infinity; conditions: in vivo
[23] = Oral bioavailability in Sprague-Dawley rat at 5.0 mg/kg, ig measured for 15 min to 72 hrs by LC-MS/MS analysis; type: ADME, organism-based; conditions: in vivo
[24] = Cmax in Sprague-Dawley rat at 1.0 mg/kg, iv measured for 5 min to 72 hrs by LC-MS/MS analysis; type: ADME, organism-based; design: dose 1 mg/kg, route intravenous; conditions: in vivo
[25] = Cmax in Sprague-Dawley rat at 5.0 mg/kg, ig measured for 15 min to 72 hrs by LC-MS/MS analysis; type: ADME, organism-based; design: dose 5 mg/kg, route intragastric; conditions: in vivo, po
[26] = Half life in Sprague-Dawley rat at 5.0 mg/kg, ig measured for 15 min to 72 hrs by LC-MS/MS analysis; type: ADME, organism-based; conditions: in vivo, po
[27] = AUC (0 to infinity) in Sprague-Dawley rat at 1.0 mg/kg, iv measured for 5 min to 72 hrs by LC-MS/MS analysis; type: ADME, organism-based; design: dose 1 mg/kg, time infinity, route intravenous; conditions: in vivo
[28] = Mean residence time in Sprague-Dawley rat at 5.0 mg/kg, ig measured for 15 min to 72 hrs by LC-MS/MS analysis; type: ADME, organism-based; conditions: in vivo, po
[29] = Volume of distribution in Sprague-Dawley rat at 1.0 mg/kg, iv measured for 5 min to 72 hrs by LC-MS/MS analysis; type: ADME, organism-based; conditions: in vivo
[30] = Mean residence time in Sprague-Dawley rat at 1.0 mg/kg, iv measured for 5 min to 72 hrs by LC-MS/MS analysis; type: ADME, organism-based; conditions: in vivo
[31] = Half life in Sprague-Dawley rat at 1.0 mg/kg, iv measured for 5 min to 72 hrs by LC-MS/MS analysis; type: ADME, organism-based; conditions: in vivo
[32] = Clearance in Sprague-Dawley rat at 1.0 mg/kg, iv measured for 5 min to 72 hrs by LC-MS/MS analysis; type: ADME, organism-based; conditions: in vivo
[33] = Volume of distribution in Sprague-Dawley rat at 5.0 mg/kg, ig measured for 15 min to 72 hrs by LC-MS/MS analysis; type: ADME, organism-based; conditions: in vivo, po
[34] = Tmax in Sprague-Dawley rat at 5.0 mg/kg, ig measured for 15 min to 72 hrs by LC-MS/MS analysis; type: ADME, organism-based; conditions: in vivo, po
[35] = Clearance in Sprague-Dawley rat at 5.0 mg/kg, ig measured for 15 min to 72 hrs by LC-MS/MS analysis; type: ADME, organism-based; conditions: in vivo, po
[36] = AUC (0 to infinity) in Sprague-Dawley rat at 5.0 mg/kg, ig measured for 15 min to 72 hrs by LC-MS/MS analysis; type: ADME, organism-based; design: dose 5 mg/kg, time infinity, route intragastric; conditions: in vivo, po

Sequence of Vascular endothelial growth factor receptor 2 (P35968 whole entry, the tested form may be a part): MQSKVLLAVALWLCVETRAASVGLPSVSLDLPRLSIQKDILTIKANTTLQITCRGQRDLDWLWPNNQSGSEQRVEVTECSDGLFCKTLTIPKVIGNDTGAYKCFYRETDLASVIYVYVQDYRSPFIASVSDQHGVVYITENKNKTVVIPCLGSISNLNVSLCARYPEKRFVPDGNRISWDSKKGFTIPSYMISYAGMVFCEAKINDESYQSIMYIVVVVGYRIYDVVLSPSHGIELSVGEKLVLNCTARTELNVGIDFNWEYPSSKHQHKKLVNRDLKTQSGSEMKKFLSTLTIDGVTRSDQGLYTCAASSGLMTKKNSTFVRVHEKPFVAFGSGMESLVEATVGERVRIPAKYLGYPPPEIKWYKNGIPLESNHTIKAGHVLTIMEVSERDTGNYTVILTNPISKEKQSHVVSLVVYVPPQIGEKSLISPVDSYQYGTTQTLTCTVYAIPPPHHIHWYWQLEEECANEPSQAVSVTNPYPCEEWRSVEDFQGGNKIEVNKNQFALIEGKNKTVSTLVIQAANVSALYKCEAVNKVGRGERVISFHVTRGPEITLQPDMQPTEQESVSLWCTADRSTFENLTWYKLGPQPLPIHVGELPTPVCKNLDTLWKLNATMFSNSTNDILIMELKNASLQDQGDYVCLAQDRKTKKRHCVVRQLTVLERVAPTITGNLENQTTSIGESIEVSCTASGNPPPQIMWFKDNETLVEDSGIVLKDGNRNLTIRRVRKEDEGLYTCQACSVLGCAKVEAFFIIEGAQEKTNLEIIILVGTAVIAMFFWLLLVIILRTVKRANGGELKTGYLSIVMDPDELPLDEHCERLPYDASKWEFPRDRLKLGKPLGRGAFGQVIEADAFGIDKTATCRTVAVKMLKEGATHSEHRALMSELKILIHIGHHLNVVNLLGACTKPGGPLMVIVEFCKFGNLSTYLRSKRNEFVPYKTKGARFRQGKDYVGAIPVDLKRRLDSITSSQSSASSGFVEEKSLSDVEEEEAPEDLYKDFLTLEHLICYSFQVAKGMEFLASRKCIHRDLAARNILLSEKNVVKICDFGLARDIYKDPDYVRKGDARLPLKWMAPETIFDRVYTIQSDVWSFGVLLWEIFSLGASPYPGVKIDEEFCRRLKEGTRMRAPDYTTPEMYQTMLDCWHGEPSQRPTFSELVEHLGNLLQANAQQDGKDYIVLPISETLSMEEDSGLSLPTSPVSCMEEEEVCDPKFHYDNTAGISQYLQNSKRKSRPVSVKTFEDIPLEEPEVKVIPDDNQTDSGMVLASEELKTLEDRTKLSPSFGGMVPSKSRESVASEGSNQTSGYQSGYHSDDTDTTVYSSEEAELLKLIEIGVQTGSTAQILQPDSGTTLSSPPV
Sequence of Hepatocyte growth factor receptor (P08581 whole entry, the tested form may be a part): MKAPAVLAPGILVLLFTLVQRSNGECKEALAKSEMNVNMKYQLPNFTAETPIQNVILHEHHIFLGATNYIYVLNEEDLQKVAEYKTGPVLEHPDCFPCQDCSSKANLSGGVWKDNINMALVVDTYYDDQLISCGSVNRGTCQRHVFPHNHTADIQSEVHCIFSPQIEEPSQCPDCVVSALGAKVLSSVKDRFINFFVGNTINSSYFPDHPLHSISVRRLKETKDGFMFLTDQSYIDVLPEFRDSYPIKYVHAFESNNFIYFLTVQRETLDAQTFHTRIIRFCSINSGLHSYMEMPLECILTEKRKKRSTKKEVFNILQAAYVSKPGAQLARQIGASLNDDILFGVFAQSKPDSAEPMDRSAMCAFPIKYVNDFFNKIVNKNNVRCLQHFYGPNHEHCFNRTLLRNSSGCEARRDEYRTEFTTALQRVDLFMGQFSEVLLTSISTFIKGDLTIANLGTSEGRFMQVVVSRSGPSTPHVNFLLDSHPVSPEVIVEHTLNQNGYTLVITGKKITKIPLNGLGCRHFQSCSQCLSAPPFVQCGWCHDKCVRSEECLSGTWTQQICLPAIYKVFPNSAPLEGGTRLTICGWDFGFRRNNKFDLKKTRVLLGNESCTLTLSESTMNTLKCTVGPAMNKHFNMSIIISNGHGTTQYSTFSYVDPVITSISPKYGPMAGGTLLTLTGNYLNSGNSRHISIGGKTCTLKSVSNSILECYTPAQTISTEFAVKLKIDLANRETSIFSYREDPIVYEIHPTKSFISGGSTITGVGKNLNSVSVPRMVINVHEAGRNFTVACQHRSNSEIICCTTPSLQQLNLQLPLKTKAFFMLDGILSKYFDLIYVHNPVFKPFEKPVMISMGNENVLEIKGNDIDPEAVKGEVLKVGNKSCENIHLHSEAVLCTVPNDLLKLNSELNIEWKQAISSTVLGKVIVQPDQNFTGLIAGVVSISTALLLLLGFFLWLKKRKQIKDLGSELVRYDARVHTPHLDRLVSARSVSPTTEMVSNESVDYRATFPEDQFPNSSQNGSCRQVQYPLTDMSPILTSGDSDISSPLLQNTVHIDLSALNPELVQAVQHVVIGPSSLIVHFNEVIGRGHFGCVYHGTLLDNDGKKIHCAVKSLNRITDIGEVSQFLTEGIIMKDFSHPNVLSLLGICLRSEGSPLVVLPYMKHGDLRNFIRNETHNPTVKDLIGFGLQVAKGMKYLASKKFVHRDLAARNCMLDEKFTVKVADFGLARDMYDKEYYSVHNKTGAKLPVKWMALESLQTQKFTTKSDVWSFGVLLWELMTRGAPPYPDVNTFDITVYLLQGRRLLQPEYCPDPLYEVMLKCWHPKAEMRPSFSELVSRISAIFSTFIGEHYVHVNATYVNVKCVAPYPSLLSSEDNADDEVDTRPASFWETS

O=C(Nc1cc(Oc2ccc(Nc3nccc4[nH]cc(-c5ccc(F)cc5)c(=O)c34)cc2F)ccn1)C1CCC1
IC50 [1]: 24 nM
inhibition at 10 µM [2]: 43.6%
IC50 [3]: 61.2 nM
inhibition at 10 µM [4]: 52.8%
inhibition at 10 µM [5]: 46%

CC(O)C(=O)Nc1cc(Oc2ccc(Nc3nccc4[nH]cc(-c5ccc(F)cc5)c(=O)c34)cc2F)ccn1 (configuration not stated)
IC50 [1]: 11.8 nM
inhibition at 10 µM [2]: 56%
IC50 [3]: 289 nM
half-life [6]: 4.15 h
inhibition at 10 µM [4]: 67.3%
inhibition at 10 µM [5]: 47.8%

CC(C)(O)C(=O)Nc1cc(Oc2ccc(Nc3nccc4[nH]cc(-c5ccc(F)cc5)c(=O)c34)cc2F)ccn1
IC50 [1]: 35 nM
inhibition at 10 µM [2]: 54.3%
IC50 [3]: > 3000 nM
Ratio IC50 [7]: > 85.7
inhibition at 10 µM [4]: 57.8%
inhibition at 10 µM [5]: -2.9%

CCC(=O)Nc1cc(Oc2ccc(Nc3nccc4[nH]cc(-c5ccc(F)cc5)c(=O)c34)cc2F)ccn1
IC50 [1]: 4.7 nM
inhibition at 10 µM [2]: 69.7%
IC50 [3]: 20.2 nM
half-life [6]: 2.72 h
inhibition at 10 µM [4]: 92.1%
inhibition at 10 µM [5]: 68.7%

O=C(Nc1cc(Oc2ccc(Nc3nccc4[nH]cc(-c5ccc(F)cc5)c(=O)c34)cc2F)ccn1)C1CCCCC1
IC50 [1]: 9.8 nM
inhibition at 10 µM [2]: 72.1%
IC50 [3]: > 3000 nM
Ratio IC50 [7]: > 306
half-life [6]: 1.34 h
inhibition at 10 µM [4]: 55.2%
inhibition at 10 µM [5]: 8.7%

CC(C)(C)C(=O)Nc1cc(Oc2ccc(Nc3nccc4[nH]cc(-c5ccc(F)cc5)c(=O)c34)cc2F)ccn1
IC50 [1]: 28.1 nM
inhibition at 10 µM [2]: 56.7%
IC50 [3]: > 3000 nM
Ratio IC50 [7]: > 107
inhibition at 10 µM [4]: 62.5%
inhibition at 10 µM [5]: -45.8%

CCn1cc(-c2ccc(F)cc2)c(=O)c2c(Nc3ccc(Oc4ccnc(NC(=O)C5CC5)c4)c(F)c3)nccc21
IC50 [1]: 15.6 nM
inhibition at 10 µM [2]: 11%
IC50 [3]: 1380 nM
Ratio IC50 [7]: 88
inhibition at 10 µM [4]: 31.9%
inhibition at 10 µM [5]: 15.8%

Nc1nccc(Oc2ccc(Nc3nccc4[nH]cc(-c5ccc(F)cc5)c(=O)c34)cc2F)c1Cl
IC50 [1]: 9.8 nM
MRT [8]: 0.3 h
Tmax [9]: 2.7 h
clearance [10]: 10 mL/min/kg
half-life [11]: 0.5 h
inhibition at 10 µM [2]: 79.1%
IC50 [3]: 68 nM
Cmax [12]: 600 ng/mL
AUC(0-inf) [13]: 2200 ng·h/mL
CL/F [14]: 83.3 mL/min/kg
Vd [15]: 7.5 L/kg
Vd [16]: 0.4 L/kg
Cmax [17]: 16400 ng/mL
bioavailability [18]: 12%
half-life [6]: 3.16 h
MRT [19]: 3 h
inhibition at 10 µM [4]: 85.7%
Tmax [20]: 1.8 min
inhibition at 10 µM [5]: 56.2%
half-life [21]: 1 h
AUC(0-inf) [22]: 4500 ng·h/mL

CCCCC(=O)Nc1cc(Oc2ccc(Nc3nccc4[nH]cc(-c5ccc(F)cc5)c(=O)c34)cc2F)ccn1
IC50 [1]: 14.7 nM
inhibition at 10 µM [2]: 71.8%
IC50 [3]: 26.9 nM
inhibition at 10 µM [4]: 62.7%
inhibition at 10 µM [5]: -42.2%

O=C(Nc1cc(Oc2ccc(Nc3nccc4c3c(=O)c(-c3ccc(F)cc3)cn4CCO)cc2F)ccn1)C1CC1
IC50 [1]: 33.8 nM
inhibition at 10 µM [2]: 52.1%
IC50 [3]: 10500 nM
inhibition at 10 µM [4]: 41.8%
inhibition at 10 µM [5]: 3.5%

O=C(Nc1cc(Oc2ccc(Nc3nccc4[nH]cc(-c5ccc(F)cc5)c(=O)c34)cc2F)ccn1)C1CC1
bioavailability [23]: 63%
IC50 [1]: 8.1 nM
inhibition at 10 µM [2]: 54.6%
IC50 [3]: 8.8 nM
Cmax [24]: 1900 ng/mL
Cmax [25]: 2700 ng/mL
half-life [26]: 6.4 h
AUC(0-inf) [27]: 13500 ng·h/mL
MRT [28]: 11.4 h
Vd [29]: 0.7 L/kg
MRT [30]: 8.5 h
half-life [6]: 13.2 h
half-life [31]: 6.8 h
clearance [32]: 1.33 mL/min/kg
Vd [33]: 1.1 L/kg
inhibition at 10 µM [4]: 81.8%
Tmax [34]: 7.3 h
inhibition at 10 µM [5]: 25.5%
CL/F [35]: 1.67 mL/min/kg
AUC(0-inf) [36]: 42200 ng·h/mL

CC(C)(O)Cn1cc(-c2ccc(F)cc2)c(=O)c2c(Nc3ccc(Oc4ccnc(NC(=O)C5CC5)c4)c(F)c3)nccc21
IC50 [1]: 25.9 nM
inhibition at 10 µM [2]: 67.4%
IC50 [3]: > 30000 nM
inhibition at 10 µM [4]: 44.3%
inhibition at 10 µM [5]: -2.6%

COc1cc2nccc(Oc3ccc(NC(=O)C4(C(=O)Nc5ccc(F)cc5)CC4)cc3)c2cc1OC [CABOZANTINIB]
inhibition at 10 µM [2]: 54.8%
inhibition at 10 µM [4]: 49.1%
inhibition at 10 µM [5]: 29%

CC(C)C(=O)Nc1cc(Oc2ccc(Nc3nccc4[nH]cc(-c5ccc(F)cc5)c(=O)c34)cc2F)ccn1
IC50 [1]: 17.7 nM
inhibition at 10 µM [2]: 84.6%
IC50 [3]: 230 nM
inhibition at 10 µM [4]: 95.4%
inhibition at 10 µM [5]: 83.4%

CC(=O)Nc1cc(Oc2ccc(Nc3nccc4[nH]cc(-c5ccc(F)cc5)c(=O)c34)cc2F)ccn1
IC50 [1]: 21.4 nM
inhibition at 10 µM [2]: 58.2%
IC50 [3]: 38.1 nM
inhibition at 10 µM [4]: 77.1%
inhibition at 10 µM [5]: 36.8%

O=C(CO)Nc1cc(Oc2ccc(Nc3nccc4[nH]cc(-c5ccc(F)cc5)c(=O)c34)cc2F)ccn1
IC50 [1]: 9.9 nM
inhibition at 10 µM [2]: 53.6%
IC50 [3]: 58.9 nM
half-life [6]: 7.23 h
inhibition at 10 µM [4]: 63%
inhibition at 10 µM [5]: 18.5%

CCCC(=O)Nc1cc(Oc2ccc(Nc3nccc4[nH]cc(-c5ccc(F)cc5)c(=O)c34)cc2F)ccn1
IC50 [1]: 14.8 nM
inhibition at 10 µM [2]: 49.7%
IC50 [3]: 19.4 nM
inhibition at 10 µM [4]: 64.6%
inhibition at 10 µM [5]: 23.5%
